Assay results as given in patent US20090088371A1, “COMBINATION THERAPY WITH SYK KINASE INHIBITOR” (Rigel Pharmaceuticals, Inc., priority 2007, published 2009).
“And” between values parts separate entries of the source, which are not always exact repeats. Identical values can stand only once. “Also recorded” adds a separate entry of the source.

Legend:
CD-1 mice = experiment: Antibody-mediated thrombocytopenia in CD-1 mice, platelet counts by flow cytometry (Examples 2 and 4, FIG. 2, Table 1); type: in vivo, mouse; details: for Individual Animal Platelet Count / Platelet Count Mean: 24 hours following anti-αIIb treatment; for Individual Animal Platelet Count: one value per animal; for Platelet Count Mean: n=6
Experimental: CD-1 mice, approximately 10 weeks of age, were obtained from Charles River (Montreal, PQ, Canada). All mice, with the exception of the naïve group, were injected with 2 μg rat anti-mouse GPIIb (also referred to as anti-integrin αIIb or anti-CD41) antibody (specific for GPIIb, clone MWReg30, rat IgG1, κ, PharMingen, Missassuaga, ON, Canada) in 200 μL PBS on Day 1. Platelets were enumerated on Day 2 (24 hours following injection of anti-platelet antibody).
During the 3 day experiment (Day O— Day 2), Compound I-treated mice were given the indicated doses of Compound 1 by oral gavage once on Day 0, twice on Day 1 and once on Day 2. Control animals were given an equal volume of vehicle. For the IVIg group, mice were injected intraperitoneally (IP) with 2 g/kg Gamunex IVIg (Bayer, Elkhart, Ill.) once on Day 0. Two concentrations of Compound 1 (3.08 and 4.94 mg/mL) were formulated with 0.1% CMC Na-0.1% Methylparaben-0.02% Propylparaben-H2O. One day prior to platelet depletion, treatment began. Mice were treated orally twice daily (bid.) with Compound 1 (30.8 or 49.4 mg/kg of body weight per dose, n=6) at a dose volume of 10 mL/kg. IVIg (2 g/kg) was used as a reference agent and was administered IP as described previously (Crow et al., 2003).
Two hours following the last treatment of Compound 1 on Day 2, all mice were bled via the saphenous vein; 50 μL of blood was collected into 450 μL PBS/1% EDTA. The blood was further diluted to a final dilution of 1/12,000 in PBS/1% EDTA. Platelets were enumerated by flow cytometry according to Crow et al., 2001. Briefly, the samples were acquired for 2 minutes on a flow-rate-calibrated FACScan flow cytometer (Becton-Dickinson, San Jose, Calif.), using forward scatter (FSC) versus side scatter (SSC) to gate platelets.
All values in the text and figures are expressed as mean±standard error of the mean (SEM) for n=6 mice/group unless noted otherwise, and n represents the number of mice. Differences between treatment and control groups were compared using the 2-tailed Student's t-test using GraphPad Prism Inc., software ver. 4.0 (San Diego, Calif., USA).
On Day 0, mice were pre-treated with nothing (Nil), 0.25 mL Vehicle twice (8 hrs apart) or the indicated doses of Compound 1 (in 0.25 mL vehicle) or 2 g/kg IVIg. On Day 1, the above treatments were repeated except for IVIg. All mice also received 2 μg anti-platelet antibody on Day 1. On Day 2, all mice were bled for platelet enumeration by flow cytometry as described. n=6 mice per group. Data are expressed as mean±SEM.

C57BL/6 mice = experiment: Anti-CD41 antibody-induced thrombocytopenia in C57BL/6 mice, platelet counts (Examples 1 and 3, FIG. 1); type: in vivo, mouse; details: for Platelet count versus mice treated with CD41 antibody alone: first dose 30 minutes prior to platelet-depleting antibody, 24 h
Experimental: On Day 1 of each study, mice were rendered thrombocytopenic by injection with rat anti-mouse CD41 antibody (IgG1, Clone MWReg30) by the intraperitoneal (IP) route. The platelet depleting antibody (rat anti-mouse GPIIb, also referred to as anti-integrin αIIb or anti-CD41) was administered […] treatment with Compound I on Day 1. Mice in control groups either received nothing (naïve), saline only, or an isotype-matched irrelevant control antibody (nonspecific rat anti-mouse IgG1, Clone R3-34, BD, San Jose, Calif.).
Mice received vehicle or Compound 1 at various dose levels (0, 20, 40, or 80 mg/kg, PO, 5 mL/kg) 30 minutes prior to the platelet depleting antibody, then again 8 h, 16 h, and 23 h after induction of thrombocytopenia. At 24 h after administration of the anti-CD41 platelet-depleting antibody, blood was harvested from all groups by cardiocentesis to assess the platelet counts or drug levels in the plasma. An aliquot from each sample was transferred to a plasma separator tube and the separated plasma was stored at −80° C. for analysis. Blood was placed indirectly on ice for delivery. Platelet enumeration was performed using Bayer Advia 120 Bayer Advia 120 hematology system (Bayer, Tarrytown, N.Y.) by Quality Clinical Laboratories (QCL, Mountain View, Calif.).
Systemic drug exposures were determined at sacrifice with the final dose being given on the evening of Day 1 (8 h prior to blood collection) or on the morning of Day 2 (1 h prior to blood collection). Satellite animals treated with Compound 1 and not receiving platelet-depleting antibody were added to obtain a more complete PK profile.
Significant differences between vehicle and Compound I-treated groups were determined statistically using the GraphPad Prism 4.0® software package, unless otherwise stated. In general, Prism 4.0® uses the standard calculations as detailed in D. G. Altman, Practical Statistics for Medical Research, 1991, Chapman and Hall. Platelet count data was analyzed using Kruskal Wallis Nonparametric test with Dunn's multiple group post-hoc test to compare the rank sums, unless otherwise noted.
In FIG. 1, each data point represents platelet counts for an individual mouse administered a single IP injection of 5 μg of CD41 platelet depleting antibody (n=11-12 per group). Mice were bled 24 hours post antibody administration and platelet counts were performed using Bayer Advia 120 analyzer. Mice were given vehicle or indicated doses of Compound 1. Platelet-depleting antibody was administered 30 minutes after the first Compound 1 or vehicle dose on Day 1.

COc1cc(Nc2ncc(F)c(Nc3ccc4c(n3)N(COP(=O)(O)O)C(=O)C(C)(C)O4)n2)cc(OC)c1OC [Compound 1]
Inhibition of platelet depletion compared with vehicle alone (CD-1 mice; 30.8 mg/kg group, p=0.001, Day 2): highly significant | Inhibition of platelet depletion compared with vehicle alone (CD-1 mice; 49.4 mg/kg group, p=0.008, Day 2): highly significant | Dose dependence of the effect on platelet counts (CD-1 mice; 30.8 versus 49.4 mg/kg, difference not significant (p=0.9)): did not appear to be dose-dependent | Individual Animal Platelet Count (CD-1 mice; Compound 1 30.8 mg/kg oral gavage, CD-1 mice, 30.8 mg/kg): 3.92e+11 L⁻¹ and 3.98e+11 L⁻¹ and 4.57e+11 L⁻¹ and 5.84e+11 L⁻¹ and 6.02e+11 L⁻¹ and 6.79e+11 L⁻¹ | Platelet Count Mean (CD-1 mice; Compound 1 30.8 mg/kg oral gavage): 5.19e+11 L⁻¹ | Individual Animal Platelet Count (CD-1 mice; Compound 1 49.4 mg/kg oral gavage, CD-1 mice, 49.4 mg/kg): 4.11e+11 L⁻¹ and 4.37e+11 L⁻¹ and 4.33e+11 L⁻¹ and 4.98e+11 L⁻¹ and 9.31e+11 L⁻¹ and 5.1e+11 L⁻¹ | Platelet Count Mean (CD-1 mice; Compound 1 49.4 mg/kg oral gavage): 5.37e+11 L⁻¹ | Effect on platelet depletion by anti-platelet antibody (CD-1 mice; Compound 1 treatment prior to and following CD41 platelet depleting antibody, CD-1 mice, Day 2): reduced depletion of platelets; also recorded: inhibited the reduction in platelet count | Platelet count versus the 80 mg/kg group (C57BL/6 mice; 20 mg/kg PO with platelet depleting antibody, p<0.01): significantly lower | Platelet count versus mice treated with CD41 antibody alone (C57BL/6 mice; 40 mg/kg PO, p<0.05): significantly higher platelet count | Platelet count versus mice treated with CD41 antibody alone (C57BL/6 mice; 80 mg/kg PO, p<0.001): significantly higher platelet count | Dose dependence of inhibition of platelet depletion (C57BL/6 mice; 20, 40, 80 mg/kg PO, C57BL/6 mice): dose-dependent inhibition of platelet depletion
